Experimental data as given in patent US20170166555A1, “FUNCTIONALISED AND SUBSTITUTED INDOLES AS ANTI-CANCER AGENTS” (Novogen Limited, priority 2013, published 2017).

Tests used:
[1] = system: melanoma (SK-Mel-28) cells; experiment: Cell viability assay (MTT, 48 hr); format: cell-based; conditions: Homo sapiens, 48 hr treatment, read-out: IC50 (μM) SKMEL28
Experimental: (§1) Cell viability assays were also conducted to assess the anti-proliferative effects of the anti-tropomyosin compounds 4001-4015. Briefly, cells (1×10^3/well) were plated (96-well) and treated (48 hr) with anti-tropomyosin drug and viability measured using 3-(4,5-dimethylthiazol-2-yl)-2,5-diphenylterazolium bromide MTT. Cell viability was normalized to control (vehicle alone) and dose-response curves, and half maximal effective concentration (EC50) values were determined using Graph Pad Prism 5 (nonlinear regression sigmoidal dose-response variable slope).

[2] = system: neuroblastoma (SH-EP) cells; experiment: Cell viability assay (MTT, 48 hr); format: cell-based; conditions: 48 hr treatment, read-out: IC50 (μM) SHEP
Experimental: as §1

[3] = system: non-transfected and Tm5NM1 stably transfected MEFs; experiment: MTT viability in non-transfected versus Tm5NM1 stably transfected MEFs; format: cell-based, mouse; conditions: 48 hr, FIG. 1
Experimental: FIG. 1: Activity of selected compounds against Tm5NM1/2 transfected mouse embryonic fibroblasts versus non-transfected MEFs.
Compounds 4001, 4010, 4014, 4008 and 4015 were then screened against non-transfected and Tm5NM1 stably transfected MEFs. Briefly, MEFs were transfected with pEYFP-C1/Tm5NM1 constructs using the Amaxa nucleofector apparatus (program A-023) and MEF nucleofector kit 1 (Lonza) according to the manufacturer's instructions. Cell viability assays were also conducted to assess the anti-proliferative effects of the anti-tropomyosin compounds. Briefly, cells (1×10^3/well) were plated (96-well) and treated (48 hr) with anti-tropomyosin compounds and viability measured using 3-(4,5-dimethylthiazol-2-yl)-2, 5-diphenylterazolium bromide MTT. Cell viability was normalized to control (vehicle alone) and dose-response curves, and half maximal effective concentration (EC50) values were determined using Graph Pad Prism 5 (nonlinear regression sigmoidal dose-response variable slope).

[4] = system: A375 melanoma xenograft; experiment: A375 melanoma xenograft efficacy study; format: in vivo, Foxn-1 nu/nu athymic mice; conditions: hydrochloride salt, 20 mg/kg intravenously QD, 15 days
Experimental: FIG. 6: Tumor volumes ±SEM of animals treated with Control (Carbonate vehicle) or compound 4015 (20 mg/kg, I.V., QD).
In vivo efficacy studies for compound 4015 hydrochloride salt were conducted using an A375 melanoma xenograft model in Foxn-1 nu/nu athymic mice. The human melanoma cell line A375 (sourced from American Type Culture Collection (ATCC), USA) was used for developing the flank xenograft model. Briefly, five million cells were injected subcutaneously in the right flank region of the animal. When the tumors reached 130-150 mm^3 the animals were randomized into two groups, each group with 8 animals in them, so that the average tumor volume of all the groups was same.
First group received vehicle (sodium bicarbonate buffer) intravenously once a day (QD). The second group received compound 4015 at 20 mg/kg, intravenously (QD) (Table 7). The volume of dosing to each animal was calculated and adjusted every day based on individual body weight measured prior to dosing.
Animals were treated from the day of randomization (Day 1) for 15 days. Body weight and tumor dimensions (length and diameter) were measured three times in a week including the termination day of the study. Throughout the study period, mice were monitored daily for clinical condition.

[5] = system: glioblastoma (U251) cells; experiment: Cell viability, CellTiter 96 AQueous, 72 hours; format: cell-based; conditions: Homo sapiens, U-251
Experimental: The anti-proliferative activity of compound 4093 against ovarian cancer (SKOV3) and glioblastoma (U251) cells was also evaluated (Table 6). Briefly, cells were seeded at 2000 cells/well in a 96 well plate. 24 hrs post plating, each cell line was exposed to various concentrations of ATM-4093 (10, 5, 3,1, 0.7, 0.5, 0.3, 0.1 μM) for 72 hours. Cell viability was determined using CellTiter 96 AQueous (Promega) and absorbance measured at 490 nm on the SpectraMax M2 plate reader. Cell viability was normalized to control (vehicle alone) and dose-response curves, and half maximal effective concentration (EC50) values were determined using Graph Pad Prism 6 (nonlinear regression sigmoidal dose-response variable slope).

[6] = system: total actin cytoskeleton in SK-N-SH neuroblastoma cells; experiment: Microfilament disruption assay, 488-Atto-Phallodin imaging and filament quantitation; format: cell-based; conditions: 0-40 μM, 24 h, FIG. 2
Experimental: (§2) FIG. 2: Imaging and quantitation of actin filaments in SK—N—SH neuroblastoma cells treated with compound (A) 4093 and (B) 4113. Cells were stained with 488-Atto-Phallodin and DAPI to visualize the actin filament bundles and the nucleus, respectively. Shown in the top panel is a representative grey scale immunofluorescent image from control (vehicle alone), 5 μM and 10 μM treated cells. […] The coloured lines indicate the detected actin filaments. Also shown is the quantitation of cell number, filament number/cell and filament number/cell area ([…]). […]
(§3) The ability of compounds 4093 and 4113 to disrupt the total actin cytoskeleton (FIG. 2) and to specifically target Tm5NM1-containing actin filaments (FIG. 3) was assessed in vitro using the microfilament disruption assay.
(§4) Briefly, SK-N-SH neuroblastoma cells were seeded at 1800 cells/well in a 384 Perkin Elmer High Content Imaging “View” plate and left to plate down 24 h prior to treatment. […] Images were then exported and changes in the organization and numbers of actin filaments within the cell were quantitated using a linear feature detection algorithm developed by the CSIRO. […] It is these “ridge lines” that correspond to actin filament bundles and allow us to quantitate the number of filaments per cell.

[7] = system: Tm5NM1-containing actin filaments in SK-N-SH neuroblastoma cells; experiment: Microfilament disruption assay, γ9d staining imaging and filament quantitation; format: cell-based; conditions: 0-40 μM, 24 h, FIG. 3
Experimental: as §2, with “FIG. 3:” for “FIG. 2:”, “with γ9d (sheep polycolonal, 1:100) followed by 488-conjugated secondary (1:1000)” for “with 488-Atto-Phallodin”, “the Tm5NM1 containing” for “the actin”
as §3, §4

Row | IC50 [5] [µM] | SMILES | IC50 [1] [µM] | IC50 [2] [µM] | Selectivity: toxicity against primary MEFs versus MEFs stably transfected with Tm5NM1/2 [3] | Reduction in tumor growth compared to control [4] [%] | Disruption of the total actin cytoskeleton [6] | Disruption of Tm5NM1-containing actin filaments [7]
1 | – | Cc1c(C)n(CCCN(C)C)c2ccc(CN3CCN(CCc4ccccc4)CC3)cc12 [Compound 4015, 3-(2,3-dimethyl-5-((4-phenethylpiperazin-1-yl)methyl)-1H-indol-1-yl)-N,N-dimethylpropan-1-amine] | 6.4 | 4.6 | less toxicity noted against primary mouse embryonic fibroblasts (MEFs) compared with MEFs stably transfected with Tm5NM1/2 | 26 | – | –
2 | 0.5 | Cc1c(C)n(CCCN(C)C)c2ccc(Oc3ccc(C(=O)Nc4ccc(F)cc4)cc3)cc12 [Compound 4093, 4-((1-(3-(dimethylamino)propyl)-2,3-dimethyl-1H-indol-5-yl)oxy)-N-(4-fluorophenyl)benzamide] | – | – | – | – | disrupt both the total actin cytoskeleton and Tm5NM1-containing actin filaments in a dose-dependent manner | disrupt both the total actin cytoskeleton and Tm5NM1-containing actin filaments in a dose-dependent manner
